Residues, ends and D or L forms follow the SMILES beside them.

Data set [1] in a line: HPLC-based in vitro serum stability assay. The format is in vitro ADME. The conditions noted are these: 0.2 mg DMp39 incubated for indicated times with pre-warmed 50% serum, remaining peptide by heights of elution peaks, optimal dose of 20 μM. How it is done: Fig. 8 Decoy peptide DMp39 targets DLAT-mediated MTHFD2 acetylation and increases tumor chemosensitivity in vitro and in vivo. a The structure of MTHFD2. K44 containing α-helix in MTHFD2, is marked in purple. The amino acid sequence of DMp39 is shown at the top. b HPLC-based in vitro serum stability assay of DMp39. DMp39 (0.2 mg) was incubated for indicated times with pre-warmed 50% serum and applied to HPLC. […] Liver, kidney, and spleen toxicity were assessed by serum alanine aminotransferase, cystatin C, and spleen index (spleen weight (mg)/body weight (g) x 10), respectively. g Efficacy test of Cy7-DMp39 in vivo. […] MTHFD2 and Ac-K44 MTHFD2 levels in tumors were assessed by co-immunoprecipitation of MTHFD2. […] Representative images of the tumors at the endpoint are presented in (h) and (k). Ac-K44 MTHFD2, MT-CO2, and DLAT levels in both xenograft mouse tumors were assessed by IHC staining (j, m). Scale bars in (h) and (k) represent 10 mm and 25 μm in (j) and (m). Results are presented as mean ± SEM for (h, k) and mean ± SD for the rest. n = 3 per group for (e, f), n = 6 for (g) left, n = 5 for (g) right, n = 6 for (h–j), and n = 5 for (k–m). P values were obtained by one-way ANOVA. Source data are provided as a Source Data file.

A short description of data set [2]: Organ toxicity in mice (serum ALT, cystatin C, spleen index). The class given is in vivo. How it is done: K44 containing α-helix in MTHFD2, is marked in purple. The amino acid sequence of DMp39 is shown at the top. b HPLC-based in vitro serum stability assay of DMp39. DMp39 (0.2 mg) was incubated for indicated times with pre-warmed 50% serum and applied to HPLC. […] Liver, kidney, and spleen toxicity were assessed by serum alanine aminotransferase, cystatin C, and spleen index (spleen weight (mg)/body weight (g) x 10), respectively. g Efficacy test of Cy7-DMp39 in vivo. […] MTHFD2 and Ac-K44 MTHFD2 levels in tumors were assessed by co-immunoprecipitation of MTHFD2. […] Representative images of the tumors at the endpoint are presented in (h) and (k). Ac-K44 MTHFD2, MT-CO2, and DLAT levels in both xenograft mouse tumors were assessed by IHC staining (j, m). […]
Mice were subcutaneously injected into the flank with 1 × 10^6 KB-3-1^cisR cells with or without DLAT knockdown. […] The tumor volume of KB-3-1^cisR or PDX tumors was monitored by blinded measurements of two perpendicular diameters and calculated using the formula 4π/3 x (width/2)^2 x (length/2). […] Tumors were collected at the experimental endpoint, and tumor proliferation was assessed using Ki-67 IHC staining. The localization, penetration, and efficacy of DMp39 were monitored by assessing the acetyl-K44 levels in tumors and fluorescence imaging analysis using an IVIS imaging system. […]

Regarding `CC[C@H](C)[C@H](NC(=O)[C@H](CCC(N)=O)NC(=O)[C@H](CCC(N)=O)NC(=O)[C@H](C)NC(=O)[C@H](CC(C)C)NC(=O)[C@H](CCCCN)NC(=O)[C@H](CCCNC(=N)N)NC(=O)CNC(=O)[C@H](CO)NC(=O)[C@@H](NC(=O)[C@@H](N)C(C)C)[C@@H](C)CC)C(=O)N[C@@H](CCCCN)C(=O)N[C@@H](CCC(N)=O)C(=O)N[C@@H](CCC(=O)O)C(=O)N[C@H](C(=O)N[C@@H](CCCNC(=N)N)C(=O)N[C@@H](CCC(N)=O)C(=O)N[C@@H](CCC(=O)O)C(=O)N[C@H](C(=O)N[C@@H](CCC(=O)O)C(=O)N[C@@H](CCC(=O)O)C(=O)N[C@@H](Cc1c[nH]c2ccccc12)C(=O)N[C@H](C(=O)N[C@@H](C)C(=O)N[C@@H](CO)C(=O)NCC(=O)N[C@@H](CC(N)=O)C(=O)N[C@@H](CCCCN)C(=O)N[C@@H](Cc1ccc(O)cc1)C(=O)NCC(=O)N[C@@H](CCCNC(=N)N)C(=O)N[C@@H](CCCCN)C(=O)N[C@@H](CCCCN)C(=O)N[C@@H](CCCNC(=N)N)C(=O)N[C@@H](CCCNC(=N)N)C(=O)N[C@@H](CCC(N)=O)C(=O)N[C@@H](CCCNC(=N)N)C(=O)N[C@@H](CCCNC(=N)N)C(=O)N[C@@H](CCCNC(=N)N)C(=O)O)C(C)C)C(C)C)C(C)C` [DMp39] (H-VISGRKLAQQIKQEVRQEVEEWVASGNKYGRKKRRQRRR-OH), the time-dependent serum stability entry in data set [1] is recorded as “stable”. Also, in data set [2] (mice, sublethal cisplatin (5 mg/kg, twice/week for 22 days) and/or DMp39), the toxicity markers result is reported as “remained at baseline levels”. Further, the acute toxicity result in data set [2] (short-term dosing in mice) is “no acute toxicity”.

The values are drawn from article PMC12508156, “Non-canonical dihydrolipoyl transacetylase promotes chemotherapy resistance via mitochondrial tetrahydrofolate signaling” (Nature Communications, 2025).
